Assay results as given in article PMC7462985, “Inhibitors of BRAF dimers using an allosteric site” (Nature Communications, 2020).

Assays:
BRAF^V600E = BRAF^V600E (Homo sapiens, UniProt P15056, V600E); experiment: SelectScreen Z'-LYTE kinase activity assay; type: biochemical; parameters: purchased Invitrogen (SelectScreen service); conditions: 100 μM ATP
Method: (§1) BRAF kinase assays were performed using the Z’-LYTE™ enzymatic assay (Invitrogen, USA). […] Titrations were performed using a 1:3 dilution. Assays were performed using SelectScreen (Invitrogen).

[1] = system: A375 cells (BRAF^V600E monomers); experiment: p-ERK inhibition by western blot; conditions: A375 cells
BRAF^WT = target: T1, BRAF^WT (Homo sapiens, UniProt P15056); experiment: SelectScreen Z'-LYTE kinase activity assay; type: biochemical; conditions: 100 μM ATP
T1 construct: purchased Invitrogen (SelectScreen service)
Method: as §1

[2] = system: RAS^MUT/BRAF^WT melanoma or lung cancer cells (SKMEL-30, SKMEL-2, CALU6); experiment: ERK signaling inhibition by western blot; conditions: RAS^MUT/BRAF^WT cells, 1 h

Sequence of BRAF^V600E (P15056 whole entry V600E): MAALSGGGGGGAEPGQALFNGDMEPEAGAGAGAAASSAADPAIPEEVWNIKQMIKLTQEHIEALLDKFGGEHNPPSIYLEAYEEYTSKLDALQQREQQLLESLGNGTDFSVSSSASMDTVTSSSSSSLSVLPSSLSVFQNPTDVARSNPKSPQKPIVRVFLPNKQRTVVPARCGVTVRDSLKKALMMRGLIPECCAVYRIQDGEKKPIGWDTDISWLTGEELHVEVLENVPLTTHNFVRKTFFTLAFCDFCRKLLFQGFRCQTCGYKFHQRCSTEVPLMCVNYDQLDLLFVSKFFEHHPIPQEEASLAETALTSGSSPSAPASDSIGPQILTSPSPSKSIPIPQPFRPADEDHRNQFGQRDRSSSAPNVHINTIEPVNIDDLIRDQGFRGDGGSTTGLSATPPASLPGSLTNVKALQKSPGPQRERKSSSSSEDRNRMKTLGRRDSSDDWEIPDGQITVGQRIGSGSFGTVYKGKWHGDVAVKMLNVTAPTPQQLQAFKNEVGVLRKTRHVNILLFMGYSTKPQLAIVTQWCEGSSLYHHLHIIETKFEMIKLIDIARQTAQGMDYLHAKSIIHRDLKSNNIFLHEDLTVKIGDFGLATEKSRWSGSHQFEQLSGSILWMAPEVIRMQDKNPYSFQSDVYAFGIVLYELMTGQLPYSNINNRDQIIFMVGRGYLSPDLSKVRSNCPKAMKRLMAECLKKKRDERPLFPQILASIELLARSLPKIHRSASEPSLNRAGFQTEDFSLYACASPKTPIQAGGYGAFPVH
T1 sequence (P15056 whole entry): as the sequence (P15056 whole entry V600E) above, with E600V counted along it

Row | Structure (SMILES) | IC50 (BRAF^V600E) [nM] | inhibitory activity for BRAF^V600E monomers in comparison to PHI1 (in words) ([1]; 1 h) | IC50 (BRAF^WT) [nM] | concentration that robustly inhibits ERK signaling ([1]; 3 hrs, immunoblot) [µM] | effect on p-ERK levels (in words) [2]
1 | CCc1cc(N2CCC(NCc3ccc(NC(=O)c4ccc(C)c(C#Cc5cnc6cccnn56)c4)cc3C(F)(F)F)CC2)ncn1 [PHI2] | 35 ± 2.8 | increased | 598 ± 113 | – | –
2 | CCCS(=O)(=O)Nc1ccc(F)c(C(=O)c2c[nH]c3ncc(-c4ccc(Cl)cc4)cc23)c1F [Vemurafenib] | – | – | – | 0.3 | enhances p-ERK levels
